Laboratory results reported in publication PMC6299481, “Deciphering the Evolution of Cephalosporin Resistance to Ceftolozane-Tazobactam in Pseudomonas aeruginosa” (mBio, 2018).
Read-outs that look alike come from different tables or passages of the source.

Legend:
[1] = tested on: E. coli DH10B pBC SK blaPDC-3 E221K; assay: MIC, MH agar dilution (CLSI); format: cell-based, Escherichia coli; details: for MIC: Escherichia coli, read-out: MIC value
Procedure: (§1) Variant genes were synthesized into the pBC SK (-) vector by Celtek Bioscience (Franklin, TN). Mueller-Hinton (MH) agar-dilution MIC measurements were performed against isogenic transformants producing PDC-3 and nine variants of PDC-3 in pBC SK (-) according to the Clinical and Laboratory Standards Institute (CLSI) guidelines as previously described ([39], [48]). Avibactam, LP-06, and S02030 were tested at a constant 4 µg/ml in combination with various concentrations of ceftazidime. Piperacillin-tazobactam was maintained at a ratio of 8 piperacillin to 1 tazobactam. Ceftolozane-tazobactam was maintained at a ratio of 2 ceftolozane to 1 tazobactam. The MICs are reported as the concentrations at which bacterial growth was no longer observed. All MIC measurements were performed at least three times.

[2] = tested on: E. coli DH10B pBC SK blaPDC-3 V213G; assay: MIC, MH agar dilution (CLSI); format: cell-based; details: Escherichia coli, β-lactam alone
Procedure: as §1

[3] = tested on: E. coli DH10B; assay: MIC, MH agar dilution (CLSI); format: cell-based; details: Escherichia coli, β-lactam alone
Procedure: as §1

[4] = tested on: E. coli DH10B pBC SK blaPDC-3 Y223H; assay: MIC, MH agar dilution (CLSI); format: cell-based; details: Escherichia coli, β-lactam alone
Procedure: as §1

[5] = tested on: E. coli DH10B pBC SK blaPDC-3 E221G; assay: MIC, MH agar dilution (CLSI); format: cell-based; details: Escherichia coli, β-lactam alone
Procedure: as §1

[6] = tested on: E. coli DH10B pBC SK blaPDC-3 G216R; assay: MIC, MH agar dilution (CLSI); format: cell-based; details: Escherichia coli, β-lactam alone
Procedure: as §1

[7] = tested on: E. coli DH10B pBC SK blaPDC-3 G216A; assay: MIC, MH agar dilution (CLSI); format: cell-based; details: Escherichia coli; β-lactam alone; E. coli DH10B pBC SK blaPDC-3 G216A (Table 2 prints G216)
Procedure: as §1

[8] = tested on: E. coli DH10B pBC SK blaPDC-3 E221A; assay: MIC, MH agar dilution (CLSI); format: cell-based; details: Escherichia coli; β-lactam alone; E. coli DH10B pBC SK blaPDC-3 E221A (Table 2 prints E221)
Procedure: as §1

[9] = tested on: E. coli DH10B pBC SK blaPDC-3 V213A; assay: MIC, MH agar dilution (CLSI); format: cell-based; details: Escherichia coli, β-lactam alone
Procedure: as §1

[10] = tested on: E. coli DH10B pBC SK blaPDC-3; assay: MIC, MH agar dilution (CLSI); format: cell-based; details: Escherichia coli, E. coli DH10B pBC SK blaPDC-3
Procedure: as §1

[11] = tested on: E. coli DH10B pBC SK blaPDC-3 Y223A; assay: MIC, MH agar dilution (CLSI); format: cell-based; details: Escherichia coli, β-lactam alone
Procedure: as §1

[12] = tested on: E. coli DH10B pBC SK; assay: MIC, MH agar dilution (CLSI); format: cell-based; details: Escherichia coli, DH10BPBCSK, β-lactam alone
Procedure: as §1

[13] = tested on: E. coli DH10B pBC SK blaPDC-1; assay: MIC, MH agar dilution (CLSI); format: cell-based; details: Escherichia coli, β-lactam alone
Procedure: as §1

[14] = tested on: P. aeruginosa 18SH; assay: MIC, MH agar dilution (CLSI); format: cell-based; details: Pseudomonas aeruginosa, β-lactam alone, control strain expressing PDC-3
Procedure: as §1

[15] = tested on: P. aeruginosa PAO1; assay: MIC, MH agar dilution (CLSI); format: cell-based; details: Pseudomonas aeruginosa; β-lactam alone; P. aeruginosa PAO1, control strain expressing PDC-1
Procedure: as §1

[16] = tested on: E. coli DH10B strains expressing PDC-3 variants; assay: MIC, MH agar dilution (CLSI), variant strains taken together; format: cell-based, Escherichia coli; details: oxyimino cephalosporin paired with avibactam
Procedure: as §1

[17] = target: T1, E221K variant of PDC-3 β-lactamase (Pseudomonas aeruginosa, UniProt P24735, E247K/T105A); assay: Steady-state hydrolysis kinetics; format: biochemical; details: substrate hydrolysis by E221K; 10 mM PBS pH 7.4, room temperature
T1 construct: produces the corresponding PDC-3 protein without its signal peptide; made in house; host or cells: E. coli Origami 2 DE3, pET24a (+) blaPDC-3-E221K
Procedure: Steady-state kinetic and inhibitor parameters were determined by using an Agilent 8453 diode array spectrophotometer at room temperature as previously described ([20], [43], [49]). Each assay was performed in 10 mM phosphate-buffered saline (PBS) at pH 7.4 at room temperature (RT = ∼25°C) in a quartz cuvette with a 1-cm path length. Measurements were obtained using ceftolozane and ceftazidime. The kinetic parameters, Vmax and Km, were obtained with a nonlinear least-squares fit of the data (Henri Michaelis-Menten, equation 1) using Origin 7.5VR (OriginLab, Northampton, MA).(1) v=Vmax [S]/Km+[S]

[18] = target: T2, PDC-3 β-lactamase (Pseudomonas aeruginosa, UniProt P24735, T105A); assay: Competitive inhibition assay with nitrocefin as reporter substrate (Ki app); format: biochemical
T2 construct: produces the corresponding PDC-3 protein without its signal peptide; made in house; host or cells: E. coli Origami 2 DE3, pET24a (+) blaPDC-3
Procedure: For competitive inhibition assays used to determine Ki app, 150 μM nitrocefin was used as the reporter substrate with increasing concentrations of ceftazidime or ceftolozane. Initial velocities were plotted against concentrations of ceftazidime or ceftolozane. Ki app obs were determined by dividing the slope by the y intercept. Ki app was calculated by correcting Ki app obs for nitrocefin affinity and concentration (equation 3). (3) Ki app=Ki app obs/[1+([NCF]/Km NCF)

[19] = target: T2, PDC-3 β-lactamase; details: cited from earlier work; for Km: PDC-3, previously reported value; for kcat: PDC-3, reported value
[20] = read-out: MIC value, β-lactam alone

CC1(C)S[C@@H]2[C@H](NC(=O)[C@H](N)c3ccccc3)C(=O)N2[C@H]1C(=O)O [Ampicillin]
MIC ([1]; β-lactam alone, E. coli DH10B pBC SK blaPDC-3 E221K): 256 µg/mL
MIC [2]: 1020 µg/mL
MIC [3]: 4 µg/mL
MIC [4]: 512 µg/mL
MIC [5]: 512 µg/mL
MIC [6]: 1020 µg/mL
MIC [7]: 1020 µg/mL
MIC [8]: 1020 µg/mL
MIC [9]: 1020 µg/mL
MIC ([10]; β-lactam alone, read-out: MIC value): 256 µg/mL
MIC [11]: 256 µg/mL
MIC [12]: 4 µg/mL
MIC [13]: 256 µg/mL
MIC [14]: 4100 µg/mL
MIC [15]: 2050 µg/mL

C[C@H]1[C@H](NC(=O)/C(=N\OC(C)(C)C(=O)O)c2csc(N)n2)C(=O)N1S(=O)(=O)O [Aztreonam]
MIC [1]: 8 µg/mL
MIC [2]: 8 µg/mL
MIC [3]: 0.125 µg/mL
MIC [4]: 4 µg/mL
MIC [5]: 4 µg/mL
MIC [6]: 16 µg/mL
MIC [7]: 8 µg/mL
MIC [8]: 4 µg/mL
MIC [9]: 8 µg/mL
MIC [10, 20]: 1 µg/mL
MIC [11]: 4 µg/mL
MIC [12]: 0.125 µg/mL
MIC [13]: 0.5 µg/mL
MIC [14]: 128 µg/mL
MIC [15]: 4 µg/mL

CO/N=C(\C(=O)N[C@@H]1C(=O)N2C(C(=O)[O-])=C(C[N+]3(C)CCCC3)CS[C@H]12)c1csc(N)n1 [Cefepime]
MIC [1]: 0.25 µg/mL
MIC [2]: 0.125 µg/mL
MIC [3]: 0.125 µg/mL
MIC [4]: 0.125 µg/mL
MIC [5]: 0.125 µg/mL
MIC [6]: 0.25 µg/mL
MIC [7]: 0.125 µg/mL
MIC [8]: 0.125 µg/mL
MIC [9]: 0.125 µg/mL
MIC [10, 20]: ≤ 0.06 µg/mL
MIC [11]: 0.25 µg/mL
MIC [12]: < 0.06 µg/mL
MIC [13]: 0.125 µg/mL
MIC [14]: 128 µg/mL
MIC [15]: 4 µg/mL

CO/N=C(\C(=O)N[C@@H]1C(=O)N2C(C(=O)O)=C(COC(C)=O)CS[C@H]12)c1csc(N)n1 [Cefotaxime]
MIC [1]: 4 µg/mL
MIC [2]: 16 µg/mL
MIC [3]: < 0.06 µg/mL
MIC [4]: 8 µg/mL
MIC [5]: 8 µg/mL
MIC [6]: 16 µg/mL
MIC [7]: 8 µg/mL
MIC [8]: 16 µg/mL
MIC [9]: 16 µg/mL
MIC [10, 20]: 8 µg/mL
MIC [11]: 16 µg/mL
MIC [12]: < 0.06 µg/mL
MIC [13]: 8 µg/mL
MIC [14]: > 256 µg/mL
MIC [15]: 16 µg/mL

CC(C)(O/N=C(\C(=O)N[C@@H]1C(=O)N2C(C(=O)[O-])=C(C[n+]3ccccc3)CS[C@H]12)c1csc(N)n1)C(=O)O [Ceftazidime]
MICs when paired with avibactam [16]: ≤ 1 mg/L
fold increase in MIC relative to the wild-type strain ([1]; E221K variant strain versus PDC-3 strain, E. coli DH10B): 32 fold
MIC [1]: 64 µg/mL
Km [17]: 174 ± 20 µM
Vmax [17]: 0.9 ± 0.1 µM/s
kcat [17]: 9 ± 1 s⁻¹
Ki ([18]; 150 μM nitrocefin reporter substrate): 22 µM
fold difference in Ki app between ceftolozane and ceftazidime ([18]; ceftolozane Ki app higher than ceftazidime Ki app): ~60 fold
Km ([19]; ref 20): 51.7 ± 2.1 µM
Km ([19]; ref 28): 35 µM
kcat ([19]; ref 4): 0.002 s⁻¹
kcat ([19]; ref 28): 0.02 s⁻¹
MIC [2]: 16 µg/mL
MIC [3]: 0.25 µg/mL
MIC [4]: 16 µg/mL
MIC [5]: 32 µg/mL
MIC [6]: 32 µg/mL
MIC [7]: 16 µg/mL
MIC [8]: 8 µg/mL
MIC [9]: 32 µg/mL
MIC [10, 20]: 2 µg/mL
MIC [11]: 32 µg/mL
MIC [12]: 0.25 µg/mL
MIC [13]: 2 µg/mL
MIC [14]: 64 µg/mL
MIC [15]: 1 µg/mL
